Laboratory results published in PubChem BioAssay AID2060502 (Molecular Pharmacology Branch, DTP, NCI, 2025).

System: 885724-159-R-J1-PDC complex spheroid viability
Test: Anticancer human tumor 885724-159-R-J1-PDC patient-derived pancreatic adenocarcinoma cell line growth inhibition [GQUAD]
Conditions: for IC50: curve of first compound; for viability, T/C: stronger effect = lower value
In short: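 Multi-cell-type spheroids of tumor cells with HUVEC and mesenchymal stem cells, treated with drug combinations. Concentrations descend in half-log steps from near clinical Cmax, or from 10 microM where Cmax is unknown; viability read-out.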

[1] = second compound 0.0316 µM, first compound 0.0316 µM
[2] = second compound 0.0316 µM, first compound 0.1 µM
[3] = second compound 0.0316 µM, first compound 0.316 µM
[4] = second compound 0.0316 µM, first compound 1 µM
[5] = second compound 0.0316 µM, first compound 3.16 µM
[6] = second compound 0.0316 µM, first compound 10 µM
[7] = second compound 0.1 µM, first compound 0.0316 µM
[8] = second compound 0.1 µM, first compound 0.1 µM
[9] = second compound 0.1 µM, first compound 0.316 µM
[10] = second compound 0.1 µM, first compound 1 µM
[11] = second compound 0.1 µM, first compound 3.16 µM
[12] = second compound 0.1 µM, first compound 10 µM
[13] = second compound 0.316 µM, first compound 0.0316 µM
[14] = second compound 0.316 µM, first compound 0.1 µM
[15] = second compound 0.316 µM, first compound 0.316 µM
[16] = second compound 0.316 µM, first compound 1 µM
[17] = second compound 0.316 µM, first compound 3.16 µM
[18] = second compound 0.316 µM, first compound 10 µM
[19] = second compound 1 µM, first compound 0.0316 µM
[20] = second compound 1 µM, first compound 0.1 µM
[21] = second compound 1 µM, first compound 0.316 µM
[22] = second compound 1 µM, first compound 1 µM
[23] = second compound 1 µM, first compound 3.16 µM
[24] = second compound 1 µM, first compound 10 µM
[25] = second compound 3.16 µM, first compound 0.0316 µM
[26] = second compound 3.16 µM, first compound 0.1 µM
[27] = second compound 3.16 µM, first compound 0.316 µM
[28] = second compound 3.16 µM, first compound 1 µM
[29] = second compound 3.16 µM, first compound 3.16 µM
[30] = second compound 3.16 µM, first compound 10 µM
[31] = second compound 10 µM, first compound 0.0316 µM
[32] = second compound 10 µM, first compound 0.1 µM
[33] = second compound 10 µM, first compound 0.316 µM
[34] = second compound 10 µM, first compound 1 µM
[35] = second compound 10 µM, first compound 3.16 µM
[36] = second compound 10 µM, first compound 10 µM
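Also: spheroids exposed to agents for seven days before readout.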
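For viability, T/C in this document: percent of vehicle control viability where 100% = DMSO wells.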

Compound: C=CC(=O)N1CCN(c2nc(=O)n(-c3c(C)ccnc3C(C)C)c3nc(-c4c(O)cccc4F)c(F)cc23)C(C)C1 (stereo unspecified) + Cc1[nH]c2ccc(F)cc2c1-c1nc2c3cccnc3c3ncccc3c2[nH]1
- IC50 (second compound 0.0316 µM): > 10 µM
- IC50 (second compound 0.1 µM): > 10 µM
- IC50 (second compound 0.316 µM): > 10 µM
- IC50 (second compound 1 µM): > 10 µM
- IC50 (second compound 3.16 µM): < 0.0316 µM
- IC50 (second compound 10 µM): > 10 µM
- viability, T/C [1]: 97.3%
- viability, T/C [2]: 106%
- viability, T/C [3]: 98.4%
- viability, T/C [4]: 104%
- viability, T/C [5]: 98%
- viability, T/C [6]: 97.2%
- viability, T/C [7]: 105%
- viability, T/C [8]: 97.6%
- viability, T/C [9]: 98.7%
- viability, T/C [10]: 106%
- viability, T/C [11]: 109%
- viability, T/C [12]: 99.2%
- viability, T/C [13]: 95.5%
- viability, T/C [14]: 105%
- viability, T/C [15]: 92.8%
- viability, T/C [16]: 94.3%
- viability, T/C [17]: 122%
- viability, T/C [18]: 88.6%
- viability, T/C [19]: 73.7%
- viability, T/C [20]: 71.9%
- viability, T/C [21]: 69.7%
- viability, T/C [22]: 73.6%
- viability, T/C [23]: 78.7%
- viability, T/C [24]: 73.7%
- viability, T/C [25]: 45.9%
- viability, T/C [26]: 29.1%
- viability, T/C [27]: 33.4%
- viability, T/C [28]: 38.5%
- viability, T/C [29]: 33.4%
- viability, T/C [30]: 27.8%
- viability, T/C [31]: 64.3%
- viability, T/C [32]: 70.3%
- viability, T/C [33]: 72.1%
- viability, T/C [34]: 79.2%
- viability, T/C [35]: 73%
- viability, T/C [36]: 65.9%

Compound: CC[C@@]1(O)C(=O)OCc2c1cc1n(c2=O)Cc2cc3c(CN(C)C)c(O)ccc3nc2-1 + Cc1[nH]c2ccc(F)cc2c1-c1nc2c3cccnc3c3ncccc3c2[nH]1
- IC50 (second compound 0.0316 µM): > 0.316 µM
- IC50 (second compound 0.1 µM): > 0.316 µM
- IC50 (second compound 0.316 µM): > 0.316 µM
- IC50 (second compound 1 µM): > 0.316 µM
- IC50 (second compound 3.16 µM): < 0.000999 µM
- IC50 (second compound 10 µM): > 0.316 µM
- viability, T/C (second compound 0.0316 µM, first compound 0.000999 µM): 90.3%
- viability, T/C (second compound 0.0316 µM, first compound 0.00316 µM): 114%
- viability, T/C (second compound 0.0316 µM, first compound 0.00999 µM): 98.9%
- viability, T/C [1]: 97.6%
- viability, T/C (second compound 0.0316 µM, first compound 0.0999 µM): 84.2%
- viability, T/C [3]: 68.7%
- viability, T/C (second compound 0.1 µM, first compound 0.000999 µM): 98.9%
- viability, T/C (second compound 0.1 µM, first compound 0.00316 µM): 104%
- viability, T/C (second compound 0.1 µM, first compound 0.00999 µM): 98%
- viability, T/C [7]: 93.6%
- viability, T/C (second compound 0.1 µM, first compound 0.0999 µM): 87.8%
- viability, T/C [9]: 74.6%
- viability, T/C (second compound 0.316 µM, first compound 0.000999 µM): 85.5%
- viability, T/C (second compound 0.316 µM, first compound 0.00316 µM): 83.9%
- viability, T/C (second compound 0.316 µM, first compound 0.00999 µM): 96.7%
- viability, T/C [13]: 78.2%
- viability, T/C (second compound 0.316 µM, first compound 0.0999 µM): 80.8%
- viability, T/C [15]: 69.2%
- viability, T/C (second compound 1 µM, first compound 0.000999 µM): 80.8%
- viability, T/C (second compound 1 µM, first compound 0.00316 µM): 75.7%
- viability, T/C (second compound 1 µM, first compound 0.00999 µM): 67.7%
- viability, T/C [19]: 75.5%
- viability, T/C (second compound 1 µM, first compound 0.0999 µM): 67%
- viability, T/C [21]: 60.5%
- viability, T/C (second compound 3.16 µM, first compound 0.000999 µM): 42.8%
- viability, T/C (second compound 3.16 µM, first compound 0.00316 µM): 30.9%
- viability, T/C (second compound 3.16 µM, first compound 0.00999 µM): 35.1%
- viability, T/C [25]: 34.2%
- viability, T/C (second compound 3.16 µM, first compound 0.0999 µM): 33.3%
- viability, T/C [27]: 23.6%
- viability, T/C (second compound 10 µM, first compound 0.000999 µM): 64.1%
- viability, T/C (second compound 10 µM, first compound 0.00316 µM): 72.6%
- viability, T/C (second compound 10 µM, first compound 0.00999 µM): 70.2%
- viability, T/C [31]: 68.3%
- viability, T/C (second compound 10 µM, first compound 0.0999 µM): 63.4%
- viability, T/C [33]: 49.1%

Compound: COc1cc(C2c3cc4c(cc3C(OC3OC5COC(C)OC5C(O)C3O)C3COC(=O)C23)OCO4)cc(OC)c1O (stereo unspecified) + Cc1[nH]c2ccc(F)cc2c1-c1nc2c3cccnc3c3ncccc3c2[nH]1
- IC50 (second compound 0.0316 µM): > 10 µM
- IC50 (second compound 0.1 µM): > 10 µM
- IC50 (second compound 0.316 µM): > 10 µM
- IC50 (second compound 1 µM): > 10 µM
- IC50 (second compound 3.16 µM): < 0.0316 µM
- IC50 (second compound 10 µM): > 10 µM
- viability, T/C [1]: 92.8%
- viability, T/C [2]: 88.7%
- viability, T/C [3]: 93.8%
- viability, T/C [4]: 94.9%
- viability, T/C [5]: 79.2%
- viability, T/C [6]: 88.5%
- viability, T/C [7]: 102%
- viability, T/C [8]: 117%
- viability, T/C [9]: 93.1%
- viability, T/C [10]: 103%
- viability, T/C [11]: 80.2%
- viability, T/C [12]: 80.2%
- viability, T/C [13]: 103%
- viability, T/C [14]: 87.2%
- viability, T/C [15]: 80.7%
- viability, T/C [16]: 83.2%
- viability, T/C [17]: 79.7%
- viability, T/C [18]: 72.3%
- viability, T/C [19]: 89.5%
- viability, T/C [20]: 69.8%
- viability, T/C [21]: 75%
- viability, T/C [22]: 69.1%
- viability, T/C [23]: 77.8%
- viability, T/C [24]: 61%
- viability, T/C [25]: 53.2%
- viability, T/C [26]: 32.2%
- viability, T/C [27]: 45.4%
- viability, T/C [28]: 43.7%
- viability, T/C [29]: 35.8%
- viability, T/C [30]: 26.5%
- viability, T/C [31]: 68.3%
- viability, T/C [32]: 69.3%
- viability, T/C [33]: 70.9%
- viability, T/C [34]: 68%
- viability, T/C [35]: 70.6%
- viability, T/C [36]: 55.4%
